Among the data in paper PMC10298474 (2023) are KD values, retold here.

Molecules are shown by their SMILES.

The experiment relates to Cy5-labeled 16 bp WC-helix (RNA, duplex) AGAGGGAAUUCCCUCU
Description: microscale thermophoresis. The settings on record: 100 mM K+, 2 mM Mg2+; 10 mM HEPES pH 7.5, 0.5 mM EDTA, 0.1% Tween 20, 25 °C; 50 nM RNA; single-site fit. A general note: MST reads how a fluorescent partner responds to local heating, with and without ligand.

On to `C[C@@H]1O[C@@H](OC[C@H]2O[C@@H](Oc3c(-c4ccc(O)c(O)c4)oc4cc(O)cc(O)c4c3=O)[C@H](O)[C@@H](O)[C@@H]2O)[C@H](O)[C@H](O)[C@H]1O`, for which the KD was < 0.1 nM.

The KD is the constant that tells how readily two partners part at equilibrium.
